IC50 and viability, T/C data for five compounds are collected here from PubChem BioAssay AID2060497 (Molecular Pharmacology Branch, DTP, NCI, 2025).

In this experiment the test system is 317291-083-R-J1-PDC complex spheroids, viability. The experiment can be described thus: Anticancer human tumor 317291-083-R-J1-PDC patient-derived soft tissue sarcoma cell line growth inhibition [GQUAD]. The note with it: for viability, T/C: stronger effect = lower value. An excerpt: DNA G-quadruplex Stabilizer Agents in Combinations in Complex Spheroids
A high-throughput screen of multi-cell type tumor spheroids was designed to identify active combinations of DNA G-quadruplex stabilizer agents and targeted small molecules. Complex spheroids include a stromal component modeled by human endothelial cells (HUVEC) and fibroblasts modeled by human mesenchymal stem cells (MSCs). The concentration ranges selected for each drug and investigational agent were based upon clinically achievable concentrations if the clinical Cmax of the agent was known.
Compounds. The drugs and investigational agents: pidnarulex (CX-5461; NSC782164), APTO-253 (NSC789042), BRACO-19 (NSC847499), peposertib (NSC802822), ceralasertib (NSC780249), elimusertib (NSC800525), camonsertib (NSC841442), AZD-1390 (NSC803789), olaparib (NSC753686), talazoparib (NSC767125), ART-558 (NSC835418), sotorasib (NSC818433), MRTX-1133 (NSC836407), SN-38 (NSC673596), topotecan (NSC609699), etoposide (NSC141540), doxorubicin (NSC123127), gemcitabine (NSC613327), 5-fluorouracil (NSC19893), paclitaxel (NSC125973), vemurafenib (NSC761431), panobinostat (NSC761190), R-306465 (JNJ-16241199; NSC773264), adavosertib (NSC754352), TP-3654 (NSC805149), carboplatin (NSC241240), KSQ-4279 (NSC840948), and staurosporine (NSC755774) were obtained from the National Cancer Institute (NCI) Developmental Therapeutics Program Chemical Repository (34). The FDA-approved anticancer drug set is available from the NCI Developmental Therapeutics Program. […] The stock solutions were prepared in dimethyl sulfoxide (DMSO, Sigma-Aldrich, St. Louis, MO, cat. D2650) at 800-fold the tested concentration and stored at -70 degrees C prior to their use. All drugs and investigational agents were tested over a range starting from a high concentration at or near the clinical Cmax and decreasing in half-log increments. If the clinical Cmax for an agent had not been determined, the highest concentration tested was 10 microM.
2.3 Cell Culture. All cells were maintained in an incubator at 37 degrees C and 5% CO2 with 95% humidity. The PDC lines were cultured according to standard operating procedures established by the NCI PDMR. All PDCs were thawed and cultured in Matrigel-coated flasks prepared with a working solution of 1X Ham's F-12 nutrient mix, without supplementation (Invitrogen, cat. 11765054), 100 U/mL penicillin-streptomycin (Invitrogen, cat. 15140122), and 2.5% Matrigel (Corning Inc., cat. 354248) for the first three passages. The 857933-349-R-J2-PDC line was cultured in 6C/Colon 1B media, which includes advanced DMEM/F-12 (Thermo Fisher Scientific, cat. 12634028), 10 mM HEPES (Thermo Fisher Scientific, cat. 15630080), 1X GlutaMAX supplement (Thermo Fisher Scientific, cat. 35050061), 0.1 mg/mL primocin (InvivoGen, cat. ant-pm-2), 10% defined fetal bovine serum, heat inactivated (HyClone Laboratories Inc., cat. SH30070.03HI), 50% L-WRN conditioned media (ATCC, cat. CRL-3276), 1.25 mM N-Acetyl-L-cysteine (Sigma-Aldrich, cat. A9165), 10 mM nicotinamide (Sigma-Aldrich, cat. N0636), 1X B-27 supplement (Thermo Fisher Scientific, cat. 17504044), 1X N-2 supplement (Thermo Fisher Scientific, cat. 17502048), 10 microM Y-27632 dihydrochloride (Tocris Bioscience, cat. 1254), and 50 ng/mL human EGF recombinant protein (Thermo Fisher Scientific, cat. PHG0311). The 485176-168-R4-J1-PDC line was cultured in Panc media, which includes all 6C/Colon 1B media components plus 100 ng/mL human FGF-10 (Thermo Fisher Scientific, cat. 100-26), 500 nM SB-431542 (Selleckchem, cat. S1067), and gastrin (Tocris, cat. 3006).
[…]

Where “and” joins values, the source holds several entries; their conditions need not be identical. Equal values may be shown once. A value given as a limit tells only on which side of the number the result lay.
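Also: spheroids exposed to compounds for one week before readout.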
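For viability, T/C in this document: percent viability relative to DMSO vehicle wells taken as 100%.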

As to `C=CCn1c(=O)c2cnc(Nc3ccc(N4CCN(C)CC4)cc3)nc2n1-c1cccc(C(C)(C)O)n1` + CN(C)c1ccc(Nc2c3ccc(NC(=O)CCN4CCCC4)cc3nc3cc(NC(=O)CCN4CCCC4)ccc23)cc1, the IC50 (in general, the point on the concentration scale where inhibition reaches its midpoint) reads like this: (curve of first compound, second compound 0.0316 µM) 147 nM; (curve of first compound, second compound 0.1 µM) 110 nM; (curve of first compound, second compound 0.316 µM) 34.6 nM; (curve of first compound, second compound 1 µM) less than 31.6 nM; (curve of first compound, second compound 3.16 µM) less than 31.6 nM; (curve of first compound, second compound 10 µM) less than 31.6 nM. The viability, T/C (usually the result in the treated group divided by that in the control group, in per cent) runs as follows: (second compound 0.0316 µM, first compound 0.0316 µM) 87.1%; (second compound 0.0316 µM, first compound 0.1 µM) 64.3%; (second compound 0.0316 µM, first compound 0.316 µM) 21.7%; (second compound 0.0316 µM, first compound 1 µM) 14.2%; (second compound 0.0316 µM, first compound 3.16 µM) 8.78%; (second compound 0.0316 µM, first compound 10 µM) 8.84%. Further, the viability, T/C was 82.5% (second compound 0.1 µM, first compound 0.0316 µM); 52% (second compound 0.1 µM, first compound 0.1 µM); 25.7% (second compound 0.1 µM, first compound 0.316 µM); 12.4% (second compound 0.1 µM, first compound 1 µM); 9.4% (second compound 0.1 µM, first compound 3.16 µM); 8.71% (second compound 0.1 µM, first compound 10 µM). Also, the viability, T/C (second compound 0.316 µM, first compound 0.0316 µM) was 51.3%; the viability, T/C (second compound 0.316 µM, first compound 0.1 µM) is 34.4%; the viability, T/C (second compound 0.316 µM, first compound 0.316 µM) was 14.4%; the viability, T/C (second compound 0.316 µM, first compound 1 µM) was 7.47%; the viability, T/C (second compound 0.316 µM, first compound 3.16 µM) was 7.01%; the viability, T/C (second compound 0.316 µM, first compound 10 µM) was 5.2%. Also, the viability, T/C is 31.1% (second compound 1 µM, first compound 0.0316 µM); 14.4% (second compound 1 µM, first compound 0.1 µM); 8.51% (second compound 1 µM, first compound 0.316 µM); 2.77% (second compound 1 µM, first compound 1 µM); 1.74% (second compound 1 µM, first compound 3.16 µM); 1.3% (second compound 1 µM, first compound 10 µM). Moreover, the viability, T/C reads like this: (second compound 3.16 µM, first compound 0.0316 µM) 2.02%; (second compound 3.16 µM, first compound 0.1 µM) 1.03%; (second compound 3.16 µM, first compound 0.316 µM) 0.41%; (second compound 3.16 µM, first compound 1 µM) 3.62%; (second compound 3.16 µM, first compound 3.16 µM) 0.31%; (second compound 3.16 µM, first compound 10 µM) 0.14%. For the same compound, the viability, T/C runs as follows: (second compound 10 µM, first compound 0.0316 µM) 0.27%; (second compound 10 µM, first compound 0.1 µM) 0.13%; (second compound 10 µM, first compound 0.316 µM) 0.18%; (second compound 10 µM, first compound 1 µM) 0.15%; (second compound 10 µM, first compound 3.16 µM) 0.21%; (second compound 10 µM, first compound 10 µM) 0.15%.
`COc1cccc2c1C(=O)c1c(O)c3c(c(O)c1C2=O)CC(O)(C(=O)CO)CC3OC1CC(N)C(O)C(C)O1` (stereo not given): the viability, T/C (compound 0.0316 µM) is 77.5% and 82.5% and 86.8%; the viability, T/C (compound 0.1 µM) was 35% and 28.7% and 27.3%; the viability, T/C (compound 0.316 µM) was 20% and 26.3% and 22.3%; the viability, T/C (compound 1 µM) is 8.85% and 15.2% and 15.3%; the viability, T/C (compound 3.16 µM) is 3.09% and 0.8% and 0.76%; the viability, T/C (compound 10 µM) is 4.03% and 0.72% and 2.93%. Moreover, the concentration for half-maximal inhibition (IC50) (curve of compound) is 68.4 nM and 71.5 nM and 69.3 nM.
For `CC1COCCN1c1cc(-c2ccnn2C)c2ccnc(-c3ccn[nH]3)c2n1` (stereo not given), the viability, T/C is 93.3% and 80.4% and 110% (compound 0.0316 µM); 40.7% and 25.8% and 39.3% (compound 0.1 µM); 20.1% and 22% and 14.4% (compound 0.316 µM); 20.6% and 15.7% and 21.6% (compound 1 µM); 15.3% and 14.9% and 14.8% (compound 3.16 µM); 12.3% and 12.6% and 11.2% (compound 10 µM). Besides, the 50% inhibitory concentration (IC50) (curve of compound) is 81.4 nM and 61 nM and 84.2 nM.
Regarding `COc1ccc([C@@H](O)c2cc(-c3ncnc4cc(N5CCOCC5)ccc34)c(F)cc2Cl)nn1`, the viability, T/C (compound 0.0316 µM) is 95.9% and 104% and 114%; the viability, T/C (compound 0.1 µM) is 97.8% and 87.1% and 92.8%; the viability, T/C (compound 0.316 µM) was 103% (2×) and 99.2%; the viability, T/C (compound 1 µM) was 72.4% and 93.8% and 95%; the viability, T/C (compound 3.16 µM) was 74.5% and 61.3% and 76.2%; the viability, T/C (compound 10 µM) was 42.8% and 34.4% and 49.6%. Besides, under “curve of compound”, the IC50 was 7570 nM and 5130 nM and > 10000 nM.
As for `C=CC(=O)N1CCN(c2nc(=O)n(-c3c(C)ccnc3C(C)C)c3nc(-c4c(O)cccc4F)c(F)cc23)C(C)C1` (stereo not given), the viability, T/C reads like this: (compound 0.0316 µM) 108% (2×) and 110%; (compound 0.1 µM) 105% and 102% and 99.9%; (compound 0.316 µM) 118% and 108% and 110%; (compound 1 µM) 101% (2×) and 102%; (compound 3.16 µM) 99.1% and 101% and 97.7%; (compound 10 µM) 69.1% and 68% and 75.9%. For the same compound, the IC50 (curve of compound) was greater than 10000 nM.
